Results as given in paper PMC5074247 (Biopharmaceutics & Drug Disposition, 2016).
Where two headings read alike, the source gives them in different places.

How the values were obtained:
[1] = cited from earlier work
[2] = type: in vivo, Sprague–Dawley rats; conditions: all time‐points measured; oral 1 mg/kg [^14C]teneligliptin; SD rats
[3] = Volume of distribution at steady state after intravenous administration to rats; type: in vivo; conditions: rat, plasma
[4] = Whole‐body autoradiography of SD rats; type: in vivo, Sprague–Dawley rats; conditions: 168 h, oral 1 mg/kg, SD rat
[5] = Tissue distribution of radioactivity in SD rats; type: in vivo, Sprague–Dawley rats; conditions: oral 1 mg/kg
[6] = SHRcp model ref 40; cited from earlier work

radioactive component in plasma and kidney (HPLC radiochromatogram) [2]: most abundant radioactive component | Vd [3]: 8.9 L/kg | radioactivity in autoradiogram ([4]; kidney): relatively high level of radioactivity | radioactivity in autoradiogram ([4]; liver): low level of radioactivity | radioactivity in autoradiogram ([4]; other tissues examined): negligible radioactivity | Concentration of radioactivity ([5]; Adrenal, 0.5 h): 1221.7 ± 289.0 ng eq/ml or g | Concentration of radioactivity ([5]; Adrenal, 5 h): 323.7 ± 90.7 ng eq/ml or g | Concentration of radioactivity ([5]; Adrenal, 12 h): 177.0 ± 22.7 ng eq/ml or g | Concentration of radioactivity ([5]; Adrenal, 24 h): 100.4 ± 8.8 ng eq/ml or g | Concentration of radioactivity ([5]; Adrenal, 72 h): 20.5 ± 4.3 (N.C.) ng eq/ml or g | Concentration of radioactivity ([5]; Adrenal, 168 h): 6.5 ± 4.5 (N.C.) ng eq/ml or g | Concentration of radioactivity ([5]; Aorta, 0.5 h): 488.7 ± 78.4 ng eq/ml or g | Concentration of radioactivity ([5]; Aorta, 5 h): 99.0 ± 46.0 ng eq/ml or g | Concentration of radioactivity ([5]; Aorta, 12 h): 35.7 ± 16.7 ng eq/ml or g | Concentration of radioactivity ([5]; Aorta, 24 h): 15.4 ± 5.2 ng eq/ml or g | Concentration of radioactivity ([5]; Bone, 0.5 h): 118.7 ± 22.2 ng eq/ml or g | Concentration of radioactivity ([5]; Bone, 5 h): 52.3 ± 19.9 ng eq/ml or g | Concentration of radioactivity ([5]; Bone, 12 h): 23.8 ± 7.5 ng eq/ml or g | Concentration of radioactivity ([5]; Epididymis, 0.5 h): 232.5 ± 61.7 ng eq/ml or g | Concentration of radioactivity ([5]; Epididymis, 5 h): 352.5 ± 76.0 ng eq/ml or g | Concentration of radioactivity ([5]; Epididymis, 12 h): 259.9 ± 44.4 ng eq/ml or g | Concentration of radioactivity ([5]; Epididymis, 24 h): 167.6 ± 35.4 ng eq/ml or g | Concentration of radioactivity ([5]; Epididymis, 72 h): 44.9 ± 3.8 (N.C.) ng eq/ml or g | Concentration of radioactivity ([5]; Epididymis, 168 h): 11.2 ± 3.3 (N.C.) ng eq/ml or g | Concentration of radioactivity ([5]; Heart, 0.5 h): 454.0 ± 85.0 ng eq/ml or g | Concentration of radioactivity ([5]; Heart, 5 h): 118.7 ± 34.6 ng eq/ml or g | Concentration of radioactivity ([5]; Heart, 12 h): 56.6 ± 8.9 ng eq/ml or g | Concentration of radioactivity ([5]; Heart, 24 h): 30.6 ± 2.7 ng eq/ml or g | Concentration of radioactivity ([5]; Heart, 72 h): 6.3 ± 1.1 (N.C.) ng eq/ml or g | Concentration of radioactivity ([5]; Kidney, 0.5 h): 4568.2 ± 609.1 ng eq/ml or g | Concentration of radioactivity ([5]; Kidney, 5 h): 3292.8 ± 76.8 ng eq/ml or g | Concentration of radioactivity ([5]; Kidney, 12 h): 2872.1 ± 419.4 ng eq/ml or g | Concentration of radioactivity ([5]; Kidney, 24 h): 2637.8 ± 410.3 ng eq/ml or g | Concentration of radioactivity ([5]; Kidney, 72 h): 1548.5 ± 192.3 (N.C.) ng eq/ml or g | Concentration of radioactivity ([5]; Kidney, 168 h): 606.1 ± 203.2 (N.C.) ng eq/ml or g | Concentration of radioactivity ([5]; Liver, 0.5 h): 4686.7 ± 932.3 ng eq/ml or g | Concentration of radioactivity ([5]; Liver, 5 h): 1753.2 ± 130.4 ng eq/ml or g | Concentration of radioactivity ([5]; Liver, 12 h): 814.1 ± 68.7 ng eq/ml or g | Concentration of radioactivity ([5]; Liver, 24 h): 389.5 ± 49.5 ng eq/ml or g | Concentration of radioactivity ([5]; Liver, 72 h): 250.2 ± 21.8 (N.C.) ng eq/ml or g | Concentration of radioactivity ([5]; Liver, 168 h): 92.4 ± 17.2 (N.C.) ng eq/ml or g | Concentration of radioactivity ([5]; Lung, 0.5 h): 1938.4 ± 456.7 ng eq/ml or g | Concentration of radioactivity ([5]; Lung, 5 h): 714.7 ± 116.7 ng eq/ml or g | Concentration of radioactivity ([5]; Lung, 12 h): 500.7 ± 40.2 ng eq/ml or g | Concentration of radioactivity ([5]; Lung, 24 h): 323.6 ± 46.7 ng eq/ml or g | Concentration of radioactivity ([5]; Lung, 72 h): 71.3 ± 12.9 (N.C.) ng eq/ml or g | Concentration of radioactivity ([5]; Lung, 168 h): 16.9 ± 5.9 (N.C.) ng eq/ml or g | Concentration of radioactivity ([5]; Pancreas, 0.5 h): 1253.9 ± 341.0 ng eq/ml or g | Concentration of radioactivity ([5]; Pancreas, 5 h): 298.9 ± 83.1 ng eq/ml or g | Concentration of radioactivity ([5]; Pancreas, 12 h): 107.8 ± 22.6 ng eq/ml or g | Concentration of radioactivity ([5]; Pancreas, 24 h): 50.8 ± 1.2 ng eq/ml or g | Concentration of radioactivity ([5]; Pancreas, 72 h): 8.3 ± 1.8 (N.C.) ng eq/ml or g | Concentration of radioactivity ([5]; Pancreas, 168 h): 3.4 ± 0.9 (N.C.) ng eq/ml or g | Concentration of radioactivity ([5]; Prostate, 0.5 h): 478.6 ± 167.1 ng eq/ml or g | Concentration of radioactivity ([5]; Prostate, 5 h): 169.0 ± 53.9 ng eq/ml or g | Concentration of radioactivity ([5]; Prostate, 12 h): 76.7 ± 18.8 ng eq/ml or g | Concentration of radioactivity ([5]; Prostate, 24 h): 38.6 ± 3.3 ng eq/ml or g | Concentration of radioactivity ([5]; Prostate, 72 h): 6.1 ± 1.3 (N.C.) ng eq/ml or g | Concentration of radioactivity ([5]; Prostate, 168 h): 2.2 ± 0.6 (N.C.) ng eq/ml or g | Concentration of radioactivity ([5]; Seminal vesicle, 0.5 h): 329.0 ± 105.4 ng eq/ml or g | Concentration of radioactivity ([5]; Seminal vesicle, 5 h): 133.8 ± 57.4 ng eq/ml or g | Concentration of radioactivity ([5]; Seminal vesicle, 12 h): 51.0 ± 6.3 ng eq/ml or g | Concentration of radioactivity ([5]; Seminal vesicle, 24 h): 18.7 ± 4.4 ng eq/ml or g | Concentration of radioactivity ([5]; Seminal vesicle, 72 h): 1.7 ± 2.0 (N.C.) ng eq/ml or g | Concentration of radioactivity ([5]; Skeletal muscle, 0.5 h): 242.5 ± 66.9 ng eq/ml or g | Concentration of radioactivity ([5]; Skeletal muscle, 5 h): 46.7 ± 20.1 ng eq/ml or g | Concentration of radioactivity ([5]; Skeletal muscle, 12 h): 16.7 ± 2.4 ng eq/ml or g | Concentration of radioactivity ([5]; Skeletal muscle, 24 h): 7.9 ± 1.1 ng eq/ml or g | Concentration of radioactivity ([5]; Skin, 0.5 h): 366.3 ± 77.9 ng eq/ml or g | Concentration of radioactivity ([5]; Skin, 5 h): 199.1 ± 47.5 ng eq/ml or g | Concentration of radioactivity ([5]; Skin, 12 h): 99.2 ± 14.6 ng eq/ml or g | Concentration of radioactivity ([5]; Skin, 24 h): 55.2 ± 2.9 ng eq/ml or g | Concentration of radioactivity ([5]; Skin, 72 h): 18.9 ± 1.6 (N.C.) ng eq/ml or g | Concentration of radioactivity ([5]; Skin, 168 h): 9.3 ± 3.3 (N.C.) ng eq/ml or g | Concentration of radioactivity ([5]; Spinal cord, 0.5 h): 28.2 ± 7.8 ng eq/ml or g | Concentration of radioactivity ([5]; Spinal cord, 5 h): 11.4 ± 5.8 ng eq/ml or g | Concentration of radioactivity ([5]; Spinal cord, 12 h): 4.9 ± 2.4 ng eq/ml or g | Concentration of radioactivity ([5]; Spinal cord, 24 h): 1.6 ± 1.1 ng eq/ml or g | Concentration of radioactivity ([5]; Spleen, 0.5 h): 1377.2 ± 292.1 ng eq/ml or g | Concentration of radioactivity ([5]; Spleen, 5 h): 510.7 ± 68.2 ng eq/ml or g | Concentration of radioactivity ([5]; Spleen, 12 h): 312.9 ± 31.8 ng eq/ml or g | Concentration of radioactivity ([5]; Spleen, 24 h): 217.7 ± 21.3 ng eq/ml or g | Concentration of radioactivity ([5]; Spleen, 72 h): 62.4 ± 7.3 (N.C.) ng eq/ml or g | Concentration of radioactivity ([5]; Spleen, 168 h): 17.0 ± 4.3 (N.C.) ng eq/ml or g | Concentration of radioactivity ([5]; Submaxillary gland, 0.5 h): 1009.9 ± 265.5 ng eq/ml or g | Concentration of radioactivity ([5]; Submaxillary gland, 5 h): 309.9 ± 62.2 ng eq/ml or g | Concentration of radioactivity ([5]; Submaxillary gland, 12 h): 123.7 ± 24.6 ng eq/ml or g | Concentration of radioactivity ([5]; Submaxillary gland, 24 h): 78.5 ± 12.3 ng eq/ml or g | Concentration of radioactivity ([5]; Submaxillary gland, 72 h): 18.0 ± 5.0 (N.C.) ng eq/ml or g | Concentration of radioactivity ([5]; Submaxillary gland, 168 h): 6.9 ± 2.5 (N.C.) ng eq/ml or g | Concentration of radioactivity ([5]; Testis, 0.5 h): 68.5 ± 21.6 ng eq/ml or g | Concentration of radioactivity ([5]; Testis, 5 h): 128.2 ± 41.8 ng eq/ml or g | Concentration of radioactivity ([5]; Testis, 12 h): 49.6 ± 10.4 ng eq/ml or g | Concentration of radioactivity ([5]; Testis, 24 h): 18.7 ± 2.4 ng eq/ml or g | Concentration of radioactivity ([5]; Testis, 72 h): 8.3 ± 10.2 (N.C.) ng eq/ml or g | Concentration of radioactivity ([5]; Thymus, 0.5 h): 538.8 ± 138.4 ng eq/ml or g | Concentration of radioactivity ([5]; Thymus, 5 h): 298.8 ± 61.8 ng eq/ml or g | Concentration of radioactivity ([5]; Thymus, 12 h): 181.8 ± 19.4 ng eq/ml or g | Concentration of radioactivity ([5]; Thymus, 24 h): 132.1 ± 3.9 ng eq/ml or g | Concentration of radioactivity ([5]; Thymus, 72 h): 37.5 ± 8.1 (N.C.) ng eq/ml or g | Concentration of radioactivity ([5]; Thymus, 168 h): 10.6 ± 3.3 (N.C.) ng eq/ml or g | Concentration of radioactivity ([5]; Thyroid, 0.5 h): 826.4 ± 164.2 ng eq/ml or g | Concentration of radioactivity ([5]; Thyroid, 5 h): 279.2 ± 83.8 ng eq/ml or g | Concentration of radioactivity ([5]; Thyroid, 12 h): 124.3 ± 25.9 ng eq/ml or g | Concentration of radioactivity ([5]; Thyroid, 24 h): 55.2 ± 7.4 ng eq/ml or g | time of maximum tissue concentration ([5]; large intestine): 12 h | radioactivity concentration as % of the maximum concentration ([5]; other tissues, 168 h): ≤ 3% | plasma radioactivity ([5]; plasma, 72 h): undetectable | time of maximum tissue concentration ([5]; testis, epididymis and cecum): 5 h
SMILES: Cc1cc(N2CCN([C@@H]3CN[C@H](C(=O)N4CCSC4)C3)CC2)n(-c2ccccc2)n1 [Teneligliptin, 3‐[(2S,4S)‐4‐[4‐(3‐methyl‐1‐phenyl‐1H‐pyrazol‐5‐yl)piperazin‐1‐yl]pyrrolidin‐2‐ylcarbonyl] thiazolidine]
exposure versus healthy subjects ([1]; patients with hepatic disorders ref 18): 1.59 fold | exposure versus healthy subjects ([1]; patients with renal disorders ref 17): 1.68 fold | TNF‐α expression in the aorta [6]: decreased | endothelial dysfunction [6]: attenuated
